Experimental data from paper PMC5892457, “Characterisation of novel biomass degradation enzymes from the genome of Cellulomonas fimi” (Enzyme and Microbial Technology, 2018).

Target: T1, AfsA (Cellulomonas fimi, UniProt F4H166)
T1 construct: gene Celf_3321; full ORF as BioBrick, E. coli JM109 crude lysate, untagged
T1 sequence (F4H166 1-506): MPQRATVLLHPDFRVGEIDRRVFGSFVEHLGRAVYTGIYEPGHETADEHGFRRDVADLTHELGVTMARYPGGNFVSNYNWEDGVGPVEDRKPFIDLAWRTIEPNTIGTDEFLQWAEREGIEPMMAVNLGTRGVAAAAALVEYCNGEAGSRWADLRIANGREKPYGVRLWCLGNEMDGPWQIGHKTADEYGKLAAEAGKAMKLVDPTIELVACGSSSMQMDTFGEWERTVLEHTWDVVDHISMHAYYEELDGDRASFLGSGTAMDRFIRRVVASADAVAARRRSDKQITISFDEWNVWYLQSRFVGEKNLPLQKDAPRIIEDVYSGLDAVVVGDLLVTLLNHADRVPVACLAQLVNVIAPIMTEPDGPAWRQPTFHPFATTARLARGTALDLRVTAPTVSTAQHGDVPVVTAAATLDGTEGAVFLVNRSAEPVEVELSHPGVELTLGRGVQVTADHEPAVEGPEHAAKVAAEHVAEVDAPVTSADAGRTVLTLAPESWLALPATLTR
Assay: nitrophenol release at […] nm
Format: biochemical
Conditions: pH 5.0, 37 °C, E. coli lysate

O=[N+]([O-])c1ccccc1O[C@@H]1OC[C@@H](O)[C@H](O)[C@H]1O [ONPX, 2-nitrophenyl β-D-xylopyranoside]
nitrophenol release at 405 nm: AfsA at this temperature and pH being more active with ONPX than PNPA

O=[N+]([O-])c1ccc(O[C@@H]2O[C@@H](CO)[C@H](O)[C@H]2O)cc1 [PNPA, 4-nitrophenyl α-L-arabinofuranoside]
nitrophenol release at 405 nm: AfsA and AfsB have both arabinofuranoisdase and xylosidase activities
